This is an account of results in US20030158267A1, “Method and compositions for inhibiting the scent tracking ability of biting midges” (priority 2002, published 2003).

SMILES strings stand for the structures.

In this experiment the test system is biting midges (Culicoides furens). Put plainly: Competitive field test: biting midges attracted to, killed by and collected in a CO2/octenol-baited heated electrical grid device, with or without test compound emitted. The following applies: for Midges collected: linalool 1 mg/hr; for Reduction of average biting midge kill counts: over three trials, linalool 1 mg/hr vs no linalool. It is filed as in vivo. The method, then:
A device comprising a cylindrical housing essentially shaped like an opened one-gallon paint can, was equipped to release determinable amounts of one or more of CO2, octenol and test compound of this invention. The device housing was equipped (covered) at it its open end with an electrical grid operating at a temperature of approximately 110° F. (44° C.) for killing any midges attracted to the grid and thereby collecting the killed midges in the housing. With the device in operation, biting midges would be attracted by the scent of CO2 and/or octenol eminating from the interior of the housing and from the heat of the electrical grid. Then, with the additional introduction of test compound from the housing it was possible to determine the inhibiting effect of the test compound by determining the decrease in biting midges attracted and killed by the teat device. The test was conducted in a designated test area known for its abundance of biting midges along the Indian River in Vero Beach, Fla. at the U.S. Department of Agriculture test facility. Competitive tests were conducted over a twelve day period in September.. During Days 1 to 3 and 7 to 9 the test conditions of the test device were set to mimic a bird as the target, namely the device emitted 50 cc/min CO2 and no octenol, and during Days 4 to 6 and 10 to 12 the test conditions were set to mimic a mammal as the target, namely the device emitted 50 cc/min CO2 and 7 mg/hr octenol. In these competitive tests, the inhibiting compound was either not emitted (Days 1 to 6) or emitted (Days 7 to 12). The test then determined the number of midges killed and collected in the device without the test compound present, and the number of midges killed and collected in the device with the test compound present in order to determine the ability of the test compound to inibit the ability of the biting midges (Culicoides furens) to sense the […] target.

With `C=CC(C)(O)CCC=C(C)C` (centres unmarked) [Linalool, linalool], the Midges collected runs as follows: (Day 7, device mimicking a bird: CO2 50 cc/min, octenol 0 mg/hr) 13; (Day 8, device mimicking a bird: CO2 50 cc/min, octenol 0 mg/hr) 5; (Day 9, device mimicking a bird: CO2 50 cc/min, octenol 0 mg/hr) 14; (Day 10, device mimicking a mammal: CO2 50 cc/min, octenol 7 mg/hr) 29; (Day 11, device mimicking a mammal: CO2 50 cc/min, octenol 7 mg/hr) 81; (Day 12, device mimicking a mammal: CO2 50 cc/min, octenol 7 mg/hr) 364. Besides, the “Midges collected, total” value (Days 7-9 total, bird mimic: CO2 50 cc/min, no octenol, linalool 1 mg/hr (without linalool, days 1-3: total 176)) was “Total 32” and the “Midges collected, total” value (Days 10-12 total, mammal mimic: CO2 50 cc/min, octenol 7 mg/hr, linalool 1 mg/hr (without linalool, days 4-6: total 3410)) was “Total 474”. Besides, the “Midges collected, Avg./day” value (Days 10-12 average per day, mammal mimic: CO2 50 cc/min, octenol 7 mg/hr, linalool 1 mg/hr (without linalool: 1137)) is given as “Avg./day 158”. The “Reduction of average biting midge kill counts” value is given as 81% (device mimicking a bird (CO2 50 cc/min, no octenol)) and 86% (device mimicking a mammal (CO2 50 cc/min, octenol 7 mg/hr)).
